Results on one compound are retold here after US20060052399A1, “Oxazolidinone derivatives as antibacterial agents” (AstraZeneca AB, priority 2002, published 2006).

Common to all, as to type: cell-based
The test system of one assay is Enterococcus faecium. As to the kind of experiment: MIC by agar dilution, Enterococcus faecium. The following applies: agar with 5% defibrinated horse blood, 10^4 CFU/spot, 37° C., 5% carbon dioxide, 48 hours. The procedure: (§1) The following results were obtained on a standard in-vitro test system. The activity is described in terms of the minimum inhibitory concentration (MIC) determined by the agar-dilution technique with an inoculum size of 10^4 CFU/spot. Typically, compounds are active in the range 0.01 to 256 μg/ml.
(§2) Streptococci and enterococci were tested on agar supplemented with 5% defibrinated horse blood, an inoculum of 10^4 CFU/spot and an incubation temperature of 37° C. in an atmosphere of 5% carbon dioxide for 48 hours—blood is required for the growth of some of the test organisms. Fastidious Gram negative organisms were tested in Mueller-Hinton broth, supplemented with hemin and NAD, grown aerobically for 24 hours at 37° C., and with an innoculum of 5×10^4 CPU/well.

Assay [1] concerns Staphylococcus aureus MRQR (methicillin resistant and quinolone resistant). As to the kind of experiment: MIC by agar dilution, Staphylococcus aureus MRQR. The following applies: 10^4 CFU/spot, 37° C., 24 hours. The procedure: as §1
(§3) Staphylococci were tested on agar, using an inoculum of 10^4 CFU/spot and an incubation temperature of 37° C. for 24 hours—standard test conditions for the expression of methicillin resistance.
(In general: Agar dilution tests growth on a series of plates holding different concentrations.)

Assay [2] deals with Staphylococcus aureus MSQS (methicillin sensitive and quinolone sensitive). The experiment in a line: MIC by agar dilution, Staphylococcus aureus MSQS. The note with it: 10^4 CFU/spot, 37° C., 24 hours. The procedure:
as §1, §3

The next assay deals with Haemophilus influenzae. As to the kind of experiment: MIC in Mueller-Hinton broth, Haemophilus influenzae. The following applies: Mueller-Hinton broth with hemin and NAD, aerobic, 24 hours, 37° C. The procedure:
as §1, §2

The subject of another assay is Moraxella catarrhalis. The experiment in a line: MIC in Mueller-Hinton broth, Moraxella catarrhalis. The note with it: Mueller-Hinton broth with hemin and NAD, aerobic, 24 hours, 37° C. The procedure: as §1, §2
Assay [3] concerns Linezolid Reistant Streptococcus pneumoniae. The experiment in a line: MIC by agar dilution, linezolid resistant Streptococcus pneumoniae. The note with it: agar with 5% defibrinated horse blood, 10^4 CFU/spot, 37° C., 5% carbon dioxide, 48 hours. The procedure: as §1, §2
The subject of the next assay is Streptococcus pneumoniae. As to the kind of experiment: MIC by agar dilution, Streptococcus pneumoniae. The following applies: agar with 5% defibrinated horse blood, 10^4 CFU/spot, 37° C., 5% carbon dioxide, 48 hours. The procedure: as §1, §2

Molecules are shown by their SMILES. In brackets after ≈: the same amount, converted by molar mass.

As for `Cn1nnnc1-c1ccc(-c2ccc(N3CC(CNC(=O)C4CC4)OC3=O)cc2F)cn1` (stereo in doubt) [Example 2, N-[[(5R)-3-[3-Fluoro-4-[6-(1-methyl-1H-1,2,3,4-tetrazol-5-yl)-3-Pyridinyl]phenyl]oxazolidin-2-on-5-yl]methyl]cycloproanecarboxamide], the MIC with Enterococcus faecium is 1 µg/mL (≈ 2.29 µM); in assay [1], 2 µg/mL (≈ 4.57 µM); in assay [2] it was 2 µg/mL (≈ 4.57 µM); against Haemophilus influenzae it was > 64 µg/mL; in the assay with Moraxella catarrhalis it was 0.5 µg/mL (≈ 1.14 µM); in assay [3], 4 µg/mL (≈ 9.14 µM). Also, the MIC in the assay on Streptococcus pneumoniae is 0.5 µg/mL (≈ 1.14 µM).
